From PubChem BioAssay AID1919004 (Molecular Pharmacology Branch, DTP, NCI, 2023)
Where “and” joins values, the source holds several entries; their conditions need not be identical. Equal entries are not always repeated.

Tested on: 883617-216-R-J1-PDC complex spheroids, growth, % test/control
Assay: Anticancer human tumor 883617-216-R-J1-PDC patient-derived bladder carcinoma cell line growth inhibition [AhR]
Settings: for viability, T/C: stronger effect = lower value
Summary of the method: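 Agents were dosed in half-log steps down from roughly clinical Cmax, or from 10 microM where Cmax was unknown, alone and with AhR antagonists. Read-out: percent test/control growth of tumor spheroids containing HUVEC and MSC stromal cells.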

[1] = curve of first compound, second compound 0.1 µM
[2] = curve of first compound, second compound 0.316 µM
[3] = curve of first compound, second compound 1 µM
[4] = curve of first compound, second compound 3.16 µM
[5] = curve of first compound, second compound 10 µM
[6] = second compound 0.1 µM, first compound 0.0316 µM
[7] = second compound 0.1 µM, first compound 0.1 µM
[8] = second compound 0.1 µM, first compound 0.316 µM
[9] = second compound 0.1 µM, first compound 1 µM
[10] = second compound 0.316 µM, first compound 0.0316 µM
[11] = second compound 0.316 µM, first compound 0.1 µM
[12] = second compound 0.316 µM, first compound 0.316 µM
[13] = second compound 0.316 µM, first compound 1 µM
[14] = second compound 1 µM, first compound 0.0316 µM
[15] = second compound 1 µM, first compound 0.1 µM
[16] = second compound 1 µM, first compound 0.316 µM
[17] = second compound 1 µM, first compound 1 µM
[18] = second compound 3.16 µM, first compound 0.0316 µM
[19] = second compound 3.16 µM, first compound 0.1 µM
[20] = second compound 3.16 µM, first compound 0.316 µM
[21] = second compound 3.16 µM, first compound 1 µM
[22] = second compound 10 µM, first compound 0.0316 µM
[23] = second compound 10 µM, first compound 0.1 µM
[24] = second compound 10 µM, first compound 0.316 µM
[25] = second compound 10 µM, first compound 1 µM
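Note: exposure lasted 7 days after dosing on day 3 of spheroid growth.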

CC1COCCN1c1cc(-c2ccnn2C)c2ccnc(-c3ccn[nH]3)c2n1 (configuration not stated) + CC(CO)NC(=O)c1cc(-c2ccc(Cl)cc2)nn(-c2cnn(C)c2)c1=O
IC50 [1]: > 1 µM | IC50 [2]: > 1 µM | IC50 [3]: > 1 µM | IC50 [4]: > 1 µM | IC50 [5]: > 1 µM | viability, T/C (second compound 0.1 µM, first compound 0.00316 µM): 70.5% | viability, T/C (second compound 0.1 µM, first compound 0.01 µM): 80.7% | viability, T/C [6]: 55.6% | viability, T/C [7]: 87.4% | viability, T/C [8]: 73.9% | viability, T/C [9]: 56.8% | viability, T/C (second compound 0.316 µM, first compound 0.00316 µM): 80.9% | viability, T/C (second compound 0.316 µM, first compound 0.01 µM): 85.6% | viability, T/C [10]: 88.2% | viability, T/C [11]: 63.8% | viability, T/C [12]: 48.5% | viability, T/C [13]: 53.1% | viability, T/C (second compound 1 µM, first compound 0.00316 µM): 88.8% | viability, T/C (second compound 1 µM, first compound 0.01 µM): 82.5% | viability, T/C [14]: 114% | viability, T/C [15]: 100% | viability, T/C [16]: 53.5% | viability, T/C [17]: 54% | viability, T/C (second compound 3.16 µM, first compound 0.00316 µM): 58.3% | viability, T/C (second compound 3.16 µM, first compound 0.01 µM): 69.8% | viability, T/C [18]: 72.8% | viability, T/C [19]: 73.2% | viability, T/C [20]: 61.7% | viability, T/C [21]: 53.2% | viability, T/C (second compound 10 µM, first compound 0.00316 µM): 65.8% | viability, T/C (second compound 10 µM, first compound 0.01 µM): 64.2% | viability, T/C [22]: 72.8% | viability, T/C [23]: 53.8% | viability, T/C [24]: 54.4% | viability, T/C [25]: 72%

CC1COCCN1c1cc(C2(S(C)(=N)=O)CC2)nc(-c2ccnc3[nH]ccc23)n1 (configuration not stated) + Cc1ccccc1N=Nc1ccc(NC(=O)c2ccnn2C)c(C)c1
IC50 [1]: > 10 µM | IC50 [2]: > 10 µM | IC50 [3]: > 10 µM | IC50 [4]: > 10 µM | IC50 [5]: > 10 µM | viability, T/C [6]: 97.9% | viability, T/C [7]: 97% | viability, T/C [8]: 88% | viability, T/C [9]: 84.9% | viability, T/C (second compound 0.1 µM, first compound 3.16 µM): 70.9% | viability, T/C (second compound 0.1 µM, first compound 10 µM): 54.6% | viability, T/C [10]: 90.5% | viability, T/C [11]: 93.6% | viability, T/C [12]: 81.2% | viability, T/C [13]: 89.9% | viability, T/C (second compound 0.316 µM, first compound 3.16 µM): 82% | viability, T/C (second compound 0.316 µM, first compound 10 µM): 55.4% | viability, T/C [14]: 87.7% | viability, T/C [15]: 90.9% | viability, T/C [16]: 82.4% | viability, T/C [17]: 84.8% | viability, T/C (second compound 1 µM, first compound 3.16 µM): 77.1% | viability, T/C (second compound 1 µM, first compound 10 µM): 54.8% | viability, T/C [18]: 86.5% | viability, T/C [19]: 77.6% | viability, T/C [20]: 75% | viability, T/C [21]: 75% | viability, T/C (second compound 3.16 µM, first compound 3.16 µM): 61.5% | viability, T/C (second compound 3.16 µM, first compound 10 µM): 58.8% | viability, T/C [22]: 75.7% | viability, T/C [23]: 81.5% | viability, T/C [24]: 82% | viability, T/C [25]: 77.3% | viability, T/C (second compound 10 µM, first compound 3.16 µM): 73.5% | viability, T/C (second compound 10 µM, first compound 10 µM): 57.1%

COc1ccc([C@@H](O)c2cc(-c3ncnc4cc(N5CCOCC5)ccc34)c(F)cc2Cl)nn1
viability, T/C (compound 0.0316 µM): 110% and 102% and 97.7% | viability, T/C (compound 0.1 µM): 110% and 106% and 123% | viability, T/C (compound 0.316 µM): 86.4% and 91.7% and 70% | viability, T/C (compound 1 µM): 69.8% and 77.5% and 73.8% | viability, T/C (compound 3.16 µM): 54.8% and 51.5% and 64.2% | viability, T/C (compound 10 µM): 36.5% and 39.1% and 48.6% | IC50 (curve of compound): 3.72 µM and 3.86 µM and > 10 µM
